Assay results published in patent US6753348B2, “BTK inhibitors and methods for their identification and use” (Parker Hughes Institute, priority 1998, dated 2004).

Tests used:
[1] = biological target: T1, Insulin-Receptor Kinase (IRK) (Homo sapiens, UniProt P06213); test: Cell-free tyrosine kinase inhibition assay IRK from HepG2 cells; assay type: biochemical
T1 construct: IRK was immunoprecipitated from the lysates with an anti-IRb antibody

HCK = HCK (Homo sapiens, UniProt P08631); test: Cell-free tyrosine kinase inhibition assay HCK from transfected COS-7 cells; assay type: biochemical
Sequence of HCK (P08631 whole entry, species assumed, the tested form may be a part): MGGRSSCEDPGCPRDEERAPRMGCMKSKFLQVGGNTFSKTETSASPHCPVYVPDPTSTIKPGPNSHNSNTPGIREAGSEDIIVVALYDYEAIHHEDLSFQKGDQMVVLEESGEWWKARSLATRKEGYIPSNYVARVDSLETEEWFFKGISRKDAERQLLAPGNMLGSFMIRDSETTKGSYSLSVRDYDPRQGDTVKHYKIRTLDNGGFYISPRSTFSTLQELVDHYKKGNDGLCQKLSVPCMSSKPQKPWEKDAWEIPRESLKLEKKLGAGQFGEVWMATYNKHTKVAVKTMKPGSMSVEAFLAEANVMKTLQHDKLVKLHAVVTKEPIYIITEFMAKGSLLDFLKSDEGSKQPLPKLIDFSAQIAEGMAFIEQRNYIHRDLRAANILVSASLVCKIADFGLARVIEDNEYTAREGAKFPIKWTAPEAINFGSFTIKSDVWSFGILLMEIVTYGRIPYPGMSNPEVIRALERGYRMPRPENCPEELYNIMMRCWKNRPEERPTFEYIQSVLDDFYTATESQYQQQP

[2] = test system: B18.2, NALM-6 and ALL-1 cells; test: Chemosensitization to ceramide and vincristine, DNA fragmentation; assay type: cell-based; settings: 100 μM plus VCR 10 ng/ml or C2-CER 10 μM, 24 hours
RBL-2H3 rat mast cells = test: IgE/FcεRI receptor mediated leukotriene C4 release, RBL-2H3 mast cells; assay type: cell-based; settings: RBL-2H3, IgE/DNP-BSA challenge, 30 min pre-incubation, 1-100 μM, N = 3-4, read-out: EC50 (mean ± SEM), inhibition of leukotriene C4 release
Description: Mast Cell Cultures. RBL-2H3 mast cells were a gift from Dr. Reuben P. Siraganian (Laboratory of Microbiology and Immunology, National Institute of Dental Research, National Institute of Health). The cells were maintained as monolayer cultures in 75- or 150-cm^2 flask in Eagle's essential medium supplemented with 20% fetal calf serum. Human fetal livers (16 to 21 weeks of gestational age) were obtained from prostaglandin-induced human abortuses. Subsequently, single cell suspensions were prepared and mononuclear cells were isolated by centrifugation on Ficoll-Hypaque gradients as described (Malaviya, R., et al., (1999) J Biol Chem, 274, 27028-27038). Isolated cells were cultured for 8 weeks in the presence of 100 ng/ml rhSCF, 2 ng/ml rhIL-4 (Malaviya, R., et al., (1999) J Biol Chem, 274, 27028-27038; Xia, H. Z., et al., (1997) J Immunol, 159, 2911-2921). Culture medium was replaced with fresh medium once a week for the first 2 weeks and twice a week thereafter. All human tissue specimens were used following the guidelines of the Parker Hughes Institute Institutional Review Board on the Use of Human Subjects in Research for secondary use of pathologic or surgical tissue. At the end of the 8 weeks the fetal liver derived human mast cell culture contained 70-90 percent mast cells, based on toluidine blue and tryptase staining (Xia, H. Z., et al., (1997) J Immunol, 159, 2911-2921).
Stimulation of Mast Cells. RBL-2H3 rat mast were sensitized with monoclonal anti-DNP IgE antibody (0.24 mg/ml) for 1 h at 37° C. in a 48-well tissue culture plate. Unbound IgE was removed by washing the cells with PIPES-buffered saline. After washing, PIPES-buffered saline containing 1 mM calcium chloride was added to the monolayers of the RBL-2H3 cells. The cells were challenged with 20 ng/ml DNP-BSA for 30 min at 37° C. The plate was centrifuged at 200 g for 10 min at 4° C. Supernatants were removed and saved. Fetal liver-derived human mast cells were resuspended in culture medium at a cell density of 5×10^6/ml and sensitized with human IgE (150 μg/ml) for 3 h at 4° C. After sensitization the cells were washed with tyrode buffer containing 1 mM calcium and 1 mM magnesium and challenged with mouse monoclonal anti-human IgE (40 μg/ml) for 30 min at 37° C. To study the effect of test drugs, RBL-2H3 rat mast cells or human mast cells were incubated with the drugs at the indicated concentrations or vehicle for 30 min prior to antigen challenge.
Mediator Release Assay. Leukotriene C4 levels were estimated in cell free supernatants of mast cells by immunoassay (Malaviya, R. and Abraham, S. N., (1995) Methods Enzymol, 253, 27-43).
Mast cells release large amounts of leukotrienes upon IgE receptor ligation. Because of the reported ability of LFM as a mast cell inhibitor, we utilized 13 analogues of LFM (Table 1) and examined their effect on IgE/FcεERI receptor mediated mast cell leukotriene C4 release. RBL-2H3 cells, a mucosal mast cell line, were treated with 5 different concentrations of the compounds ranging from 1 μM to 100 μM or vehicle for 30 min before challenge with antigen (DNP-BSA) at 37° C. Leukotriene C4 release was quantitated in the extracellular medium employing a previously described ELISA (Malaviya, R. and Abraham, S. N., (1995) Methods Enzymol, 253, 27-43).

[3] = concentrations as high as 100 μg/ml (~278 μM)

T1 sequence (P06213 28-1382): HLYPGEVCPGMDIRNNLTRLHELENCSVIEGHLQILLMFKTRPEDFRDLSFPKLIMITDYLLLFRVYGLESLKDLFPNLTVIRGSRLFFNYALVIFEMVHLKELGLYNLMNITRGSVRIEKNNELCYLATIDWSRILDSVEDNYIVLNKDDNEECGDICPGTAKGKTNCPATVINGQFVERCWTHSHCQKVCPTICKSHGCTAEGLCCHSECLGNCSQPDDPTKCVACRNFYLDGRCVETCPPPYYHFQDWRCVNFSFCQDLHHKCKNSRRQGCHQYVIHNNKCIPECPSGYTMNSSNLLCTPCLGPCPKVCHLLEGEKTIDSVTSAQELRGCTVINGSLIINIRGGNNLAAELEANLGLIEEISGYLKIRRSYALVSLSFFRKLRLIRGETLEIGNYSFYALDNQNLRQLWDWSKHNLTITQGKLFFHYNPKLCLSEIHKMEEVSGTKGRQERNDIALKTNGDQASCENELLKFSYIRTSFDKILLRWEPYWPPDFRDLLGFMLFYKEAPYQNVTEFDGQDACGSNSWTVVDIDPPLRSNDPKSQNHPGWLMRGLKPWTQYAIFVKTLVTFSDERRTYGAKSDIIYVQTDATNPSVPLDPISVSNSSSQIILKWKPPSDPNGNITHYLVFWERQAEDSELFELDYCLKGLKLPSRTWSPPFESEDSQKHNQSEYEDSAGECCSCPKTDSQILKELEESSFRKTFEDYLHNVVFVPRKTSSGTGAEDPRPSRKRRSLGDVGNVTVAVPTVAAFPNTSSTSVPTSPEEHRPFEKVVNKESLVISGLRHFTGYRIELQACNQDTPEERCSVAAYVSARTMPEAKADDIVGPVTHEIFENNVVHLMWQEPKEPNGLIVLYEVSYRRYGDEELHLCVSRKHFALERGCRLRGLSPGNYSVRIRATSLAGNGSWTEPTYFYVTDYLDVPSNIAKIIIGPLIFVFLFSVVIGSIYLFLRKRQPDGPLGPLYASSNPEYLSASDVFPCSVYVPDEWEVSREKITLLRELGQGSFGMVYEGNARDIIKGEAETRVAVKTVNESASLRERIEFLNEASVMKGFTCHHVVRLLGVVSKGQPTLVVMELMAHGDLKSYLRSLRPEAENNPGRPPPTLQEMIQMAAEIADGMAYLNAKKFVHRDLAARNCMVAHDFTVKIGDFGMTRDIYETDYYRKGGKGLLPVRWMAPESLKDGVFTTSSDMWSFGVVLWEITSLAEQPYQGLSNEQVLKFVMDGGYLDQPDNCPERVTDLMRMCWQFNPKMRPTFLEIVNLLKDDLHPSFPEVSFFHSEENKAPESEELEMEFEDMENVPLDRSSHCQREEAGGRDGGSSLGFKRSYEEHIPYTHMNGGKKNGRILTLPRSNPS

EC50 (RBL-2H3 rat mast cells) [µM] | SMILES | IC50 ([1]; IRK) [µM] | effect on enzymatic activity of IRK [1, 3] | IC50 (HCK) [µM] | effect on enzymatic activity of HCK (HCK; [3]) | sensitivity to ceramide-induced and vincristine-induced apoptosis [2]
 | C/C(O)=C(\C#N)C(=O)Nc1cc(Br)ccc1Br [LFM-A13, α-Cyano-β-hydroxy-β-methyl-N-(2,5-dibromophenyl)-propenamide] | > 278 | did not affect the enzymatic activity | > 278 | did not affect the enzymatic activity | enhances the sensitivity
28 ± 1 | CC(O)=C(C#N)C(=O)Nc1cccc(C(F)(F)F)c1 [LFM-A8, α-Cyano-β-hydroxy-β-methyl-N-[3-(trifluoromethyl)phenyl]-propenamide] |  |  |  |  | 
